According to patent US20060167106A1, “Compounds acting at the centrosome” (priority 2004, published 2006):
Entries after “also recorded” stand apart in the source; their conditions may differ.

Key:
CV-1 cells [1] = test: Cell morphology, time-lapse imaging of CV-1 cells; type: cell-based, monkey; conditions: 500 nM
Protocol: (§1) CV-1 cells and CHO cells were previously cultured in 2-well chambered cover-slips for 48 hours and incubated in 15 mM HEPES buffer-containing Ham's F-12/DMEM medium with different compounds. The cells were imaged using phase contrast settings with the Nikon TE300 microscope/digital imaging system. The cells were imaged ‘simultaneously’ under control of MetaVue software by capturing frames for cells from different conditions at the same time period using a motorized automated XYZ stage.
[…] […] A very low concentration of Taxol (10 nM) was used.

26S proteasome = test: Proteasome-sensor cells (HEK-293, GFP chimera), fluorescence imaging; type: cell-based; conditions: for accumulation of the GFP-based proteasome substrate at the center of the colonies: Compound 1 500 nM 20-40 hours, Velcade 50 or 500 nM 20 hours; for accumulation of GFP-labeled proteasome-targeting chimera protein, periphery of colony relative to center: HEK-293 colony, 500 nM; for proteasome inhibition activity in cell-based assays (overall statement): live proteasome-sensor cells
Description: Specifically, the proteasome-sensor cells are HEK-293 cells stably transfected with a vector (proteasome-sensor vector) that encodes naturally-occurring reef coral Zoanthus sp. green fluorescent protein (GFP) fused to a specific degradation motif that targets the fusion protein for removal by the 26S proteasome. The background fluorescence observed in normal cells with active proteasomes is low. When proteasomes are inhibited, the fluorescent protein quickly accumulates. […] Millennium Pharmaceuticals, Inc., Cambridge, Mass.). […] Velcade (Millennium Pharmaceuticals Inc.) was used as a positive control in this assay (at 5 nM, 50 nM, 500 nM or 5 μM). Velcade stock solution was prepared according to the manufacturer's instructions. GFP fluorescence of the cells was imaged at various time points using a standard filter for FITC with the Nikon TE300 microscope/digital imaging system described herein.

[2] = test system: bovine microtubule-associated protein (MAP)-free tubulin; test: Tubulin Polymerization Assay (MAP-free tubulin); type: biochemical
Protocol: For in vitro tubulin polymerization assays, lyophilized bovine microtubule-associated protein (MAP)-free tubulin and PEM buffer (80 mM Na-PIPES (pH 6.9), 1 mM MgCl2, 1 mM EGTA) were purchased from Cytoskeleton (Denver, Colo.). MAP-free tubulin (1.5 mg/ml) was incubated with the test compounds, 0.5 μM Compound 1, 3 μM Taxol, 0.5 μM Compound 1+3 μM Taxol or 0.5 μM Compound 1+30 nM Taxol in PEM-0.3% DMSO. Absorbance at 340 nm was measured every minute for 60 min at 37° C. using a Perkin Elmer HTS 7000 spectrophotometer.

HeLa cells = test: Oregon Green 488-Taxol localization in HeLa cells; type: cell-based; conditions: 0.5 μM Compound 1
Protocol: A fluorescent compound, Oregon Green 488-Taxol (Molecular Probes/Invitrogen), was utilized to determine the distribution of Taxol in CHO cells (FIG. 33). In addition, the targeting of fluorescent Taxol to centrosomes was examined in Compound 1-treated cells (FIG. 34). Non-transfected wild-type CHO cells and HeLa cells were cultured in 2-well chambered cover-slips for 24-48 hours before treatment. Oregon Green 488-Taxol stock solution was made with DMSO. […] Oregon Green 488-Taxol fluorescence in living cells or fixed cells was imaged using a standard filter for FITC with the Nikon TE300 microscope/digital imaging system.

Hsp70 = Hsp70 Western blotting in MDA-435 cells; type: cell-based; conditions: 0.5 μM; for percentage change in Hsp70 expression relative to DMSO control: normalized to background and GAPDH
Protocol: Calculations of the percentage changes were made by using the automated band analysis tools of the Kodak 1D (v.3.6.3) program. Band intensities were normalized to background and GAPDH.
MDA-435 breast cancer cells were grown in 100 mm plastic-tissue culture dishes and treated for 6 and 24 hours with 0.5 μM Taxol, Compound 1, Taxol+Compound 1, MG132, ALLN, or DMSO. After treatment, cells were washed in PBS and cell lysates were prepared by adding 100 μL of lysis buffer, which contained 20 mM Tris-HCl (pH 7.5), 150 mM NaCl, 1 mM Na2EDTA, 1 mM EGTA, 1% Triton, 2.5 mM sodium pyrophosphate, 1 mM β-glycerophosphate, 1 mM Na3VO4 and 1 μg/ml leupeptin (Cell Signaling Technology, Beverly, Mass.) supplemented with 1 mM PMSF (Sigma, St. Louis, Mo.) immediately before use, on ice for 1 hour. After scraping, the lysates were cleared by centrifugation at 13,000 RPM for 10 minutes at 4° C. Protein content was determined using a Bradford assay and bovine serum albumin as a standard (Bio-Rad Laboratories, Hercules, Calif.). Samples were solubilized by boiling in SDS sample buffer and subjected to SDS-PAGE. The proteins were subsequently transferred to a PVDF membrane (Bio-Rad, Hercules, Calif.). After blocking with 5% nonfat milk in TBS for 1 hour, the blots were incubated with a mouse monoclonal anti-Hsp70 antibody, which is specific for the inducible form of Hsp70 (Clone C92F3A-5, 1:1000 dilution, Stressgen Biotechnologies Corp., Victoria, B.C., Canada) or a rabbit polyclonal anti-GAPDH antibody (1:2000 dilution, Abcam, Cambridge, Mass.) for 2 hours at room temperature. The horseradish-peroxidase-conjugated secondary antibodies, anti-mouse horse radish peroxidase, (1:2000, Bio-Rad, Hercules, Calif.) and goat anti-rabbit polyclonal horse radish peroxidase (1:2000, Abcam, Cambridge, Mass.)) were diluted in blocking buffer and incubated with the blot for 1 hour at room temperature. The secondary antibodies were detected by enhanced chemiluminescence (ECL, Amersham Biosciences, Piscataway, N.J.) and imaged using a Kodak 440 Image Station.

CV-1 cells [3] = test: α-tubulin immunofluorescence, microtubule network in CV-1 cells; type: cell-based, monkey; conditions: 0.5 μM, 5 hours
Protocol: Before treatment, cells were grown in chamber slides for 24 hours in culture media containing 90% Eagle's MEM and 10% BCS. […] Cells were then washed in PBS and fixed in ice-cold 50/50 methanol/acetone for 10 minutes. […] Sigma, St. Louis, Mo.). Subsequently, slides were washed in PBS, incubated with an AlexaFluoR488-conjugated anti-mouse antibody (Molecular Probes, Eugene, Oreg.) at 37° C. for 30 minutes.

CHO cells = test: Cell morphology, simultaneous time-lapse imaging of CHO cells; type: cell-based, Chinese hamster; conditions: for cell death: cells, after a certain period of treatment
Protocol: as §1
To track the effect of Compound 1 on live cells, non-transfected CV-1 cells with were treated with 500 nM Compound 1 and phase contrast time-lapse images were taken every 10 seconds. […] A very low concentration of Taxol (10 nM) was used.

SMILES: CN(NC(=O)CC(=O)NN(C)C(=S)c1ccccc1)C(=S)c1ccccc1 [Compound 1]
- changes in the shape of the cell (CV-1 cells [1]; CV-1 cell, 4 hours): shrinkage of cell body relative to FIG. 19D
- changes in the shape of live cells (CV-1 cells [1]; CV-1 cells, 4 hours): shrinkage of cell bodies
- beginning of cell shrinkage after treatment (CV-1 cells [1]; non-transfected CV-1 cells): 1.5 h
- accumulation of the GFP-based proteasome substrate at the center of the colonies (26S proteasome; FIG. 14): did not cause significant accumulation
- accumulation of the GFP-based proteasome substrate at the periphery of the colonies (26S proteasome; FIG. 14, Compound 1 500 nM, 20-40 hours): significant accumulation of the GFP-based proteasome substrate
- accumulation of proteasome-sensor protein in cells (26S proteasome; HEK-293, 1 nM, 20 hours): accumulation of proteasome-sensor protein in cells
- accumulation of proteasome-sensor protein in cells (26S proteasome; HEK-293, 5 nM, 20 hours): accumulation of proteasome-sensor protein in cells
- accumulation of proteasome-sensor protein in cells (26S proteasome; HEK-293, 10 nM, 20 hours): accumulation of proteasome-sensor protein in cells
- accumulation of proteasome-sensor protein in cells (26S proteasome; HEK-293, 50 nM, 20 hours): induced an increase of the GFP-based proteasome substrate in the cytoplasm in some scattered cells; also recorded: accumulation of proteasome-sensor protein in cells
- accumulation of proteasome-sensor protein in cells (26S proteasome; HEK-293, 100 nM, 20 hours): significantly increased the GFP signal in the cytosol; also recorded: accumulation of proteasome-sensor protein in cells
- accumulation of proteasome-sensor protein in cells (26S proteasome; HEK-293, 0.5 μM, 24 hours): accumulation of proteasome-sensor protein in cells
- accumulation of proteasome-sensor protein in cells (26S proteasome; HEK-293, 500 nM, 20 hours): accumulation of proteasome-sensor protein in cells
- accumulation of GFP-labeled proteasome-targeting chimera protein, periphery of colony relative to center (26S proteasome; 20 hours): stronger accumulation at the periphery of the colony
- accumulation of GFP-labeled proteasome-targeting chimera protein, periphery of colony relative to center (26S proteasome; 40 hours): stronger accumulation at the periphery of the colony
- distribution of GFP-labeled proteasome-targeting chimera protein (26S proteasome; HEK-293 proteasome-sensor cell, 5 μM, 24 hours): general, broad distribution of GFP-labeled proteasome-targeting chimera protein in both the cytosol and nucleus
- proteasome inhibition activity in cell-based assays (overall statement) (26S proteasome): weak-to-moderate proteasome inhibitory effect in live cells; also recorded: moderate proteasome inhibition activity; also recorded: weak/moderate proteasome inhibitor
- proteasome inhibition activity in cell-based assays (overall statement) (26S proteasome; listed as GMP-grade Compound 1): detectable level of proteasome inhibition activity
- effect on the kinetics of tubulin polymerization ([2]; 0.5 μM): no effect on the kinetics of tubulin polymerization
- influence on the effect of Taxol on tubulin polymerization ([2]; 0.5 μM Compound 1 with 3 μM or 30 nM Taxol): did not influence the effect of either high dose (3 μM) or low dose (30 nM) of Taxol on tubulin polymerization
- effect on the accumulation of Taxol (Oregon Green 488-Taxol) at centrosomes (HeLa cells): no effect on the accumulation of Taxol at centrosomes
- induction of Hsp70 expression (Hsp70; 6 and 24 hours): strongly induced Hsp70 expression
- percentage change in Hsp70 expression relative to DMSO control (Hsp70; 6 hours of treatment): 980%
- percentage change in Hsp70 expression relative to DMSO control (Hsp70; 24 hours of treatment): 2121%
- organization of the microtubule network (CV-1 cells [3]): dramatic alterations in the cells' microtubule network; also recorded: loss of centrosomal enucleated microtubules, clearing up of microtubules from the cytosol, and coiling up of microtubules around the nucleus and at the cell periphery; also recorded: disruption of the microtubule network
- time of induced cell shrinkage (CHO cells; CHO cells, 500 nM): 70 min
- cell death (CHO cells): cause cell death after a certain period of treatment

SMILES: CC(C)C[C@H](NC(=O)[C@H](Cc1ccccc1)NC(=O)c1cnccn1)B(O)O [Velcade]
- accumulation of the GFP-based proteasome substrate at the center of the colonies (26S proteasome; FIG. 14): greater accumulation of the GFP-based proteasome substrate in cells at the colony center than did Compound 1
- accumulation of proteasome-sensor protein in cells (26S proteasome; HEK-293, 1 nM, 20 hours): accumulation of proteasome-sensor protein in cells
- accumulation of proteasome-sensor protein in cells (26S proteasome; HEK-293, 5 nM, 20 hours): significantly induced an increase of GFP signal; also recorded: accumulation of proteasome-sensor protein in cells
- accumulation of proteasome-sensor protein in cells (26S proteasome; HEK-293, 10 nM, 20 hours): accumulation of proteasome-sensor protein in cells
- accumulation of proteasome-sensor protein in cells (26S proteasome; HEK-293, 50 nM, 20 hours): accumulation of proteasome-sensor protein in cells
- accumulation of proteasome-sensor protein in cells (26S proteasome; HEK-293, 100 nM, 20 hours): accumulation of proteasome-sensor protein in cells
- accumulation of proteasome-sensor protein in cells (26S proteasome; HEK-293, 100 nM, 24 hours): accumulation of proteasome-sensor protein in cells
- accumulation of proteasome-sensor protein in cells (26S proteasome; HEK-293, 500 nM, 20 hours): accumulation of proteasome-sensor protein in cells
- effect on cell morphology (CHO cells; CHO cells, 100 nM): did not dramatically affect cell morphology until cell death
- time of cell death (CHO cells; CHO cells, 100 nM): 210 min
- cell death (CHO cells): cause cell death after a certain period of treatment
